SMILES strings stand for the structures. Where two headings read alike, the source gives them in different places.

Test [1] relates to Mycosphaerella graminicola; Anamorph: Septoria tritici. In words: Leaf Blotch of Wheat (SEPTTR) fungicidal activity on wheat seedlings. In kind it is in vivo. Conditions: Zymoseptoria tritici; for pest or weed control at 121.5 g/ha: Low Volume, 121.5 g/H; for pest or weed control at 100 ppm: High Volume. The essentials:
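Compounds in acetone were diluted with nine volumes of water containing 110 ppm Triton X-100, or as EC formulations with 0.1% Trycol 5941 for track spray. They were sprayed on first-leaf Yuma wheat seedlings inoculated with S. tritici before or after treatment. Plants spent 1 day dark and 2–3 days lit at 100% RH, 20 °C. Severity (0–100%) was scored once untreated plants were fully diseased; control was computed relative to untreated plants.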

In test [2] the test system is Puccinia triticina; Synonym: Puccinia recondita f sp. tritici. In words: Wheat Brown Rust (PUCCRT) fungicidal activity on wheat seedlings. It counts as in vivo. Conditions: for pest or weed control at 121.5 g/ha: Low Volume, 121.5 g/H; for pest or weed control at 100 ppm: High Volume. The essentials: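 Yuma wheat seedlings (first leaf emerged) were sprayed to run-off with compound in acetone/water 1:9 (110 ppm Triton X-100), and P. triticina spores were inoculated before or after treatment. Plants were kept overnight in a 22 °C dark dew room at 100% RH, then moved to a 24 °C greenhouse; % control was based on first-leaf severity (0–100%) versus untreated plants.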

Where [3] appears, read: 24 h, 1 Day Protectant, read-out: SEPTTR 1DP disease control.
Setting [4] is: 72 h, 3 Day Curative, read-out: SEPTTR 3DC disease control.
The mark [5] stands for this setting: 24 h, 1 Day Protectant, read-out: PUCCRT 1DP disease control.
The mark [6] stands for this setting: 72 h, 3 Day Curative, read-out: PUCCRT 3DC disease control.

Regarding `COc1ccnc(C(=O)N[C@@H](C)C(=O)O[C@@H](C)C(c2cccc(F)c2)c2cccc(F)c2)c1OCOC(C)=O` [Cmpd 159], the pest or weed control at 121.5 g/ha in test [1] (setting [3]), in test [1] (setting [4]), in test [2] (setting [5]) and in test [2] (setting [6]) was more than 80% in each case.

Turning to `COc1ccnc(C(=O)N[C@@H](C)C(=O)O[C@@H](C)C(c2ccc(C)s2)c2ccc(C)s2)c1OC(C)=O` [Cmpd 166], the pest or weed control at 121.5 g/ha in test [1] (setting [3]), in test [1] (setting [4]) and in test [2] (setting [5]) was less than 80% throughout.

For the compound `COc1ccnc(C(=O)N[C@@H](C)C(=O)O[C@@H](C)C(c2ccc(C)cc2)c2ccc(C)cc2)c1OCOC(C)=O` [Cmpd 171], the pest or weed control at 121.5 g/ha in test [1] (setting [3]), in test [1] (setting [4]), in test [2] (setting [5]) and in test [2] (setting [6]) was more than 80% throughout.

Take `COc1ccnc(C(=O)N[C@@H](C)C(=O)O[C@@H](C)[C@@H](c2ccccc2)c2ccc(F)cc2)c1OCOC(C)=O` [Cmpd 199]: the pest or weed control at 121.5 g/ha in test [1] (setting [3]), in test [1] (setting [4]), in test [2] (setting [5]) and in test [2] (setting [6]) was more than 80% in each case.

`COc1ccnc(C(=O)N[C@@H](C)C(=O)OC(C)C2c3ccccc3Oc3ccccc32)c1O` (stereo partly shown) [Cmpd 102]: the pest or weed control at 100 ppm in test [1] (setting [3]), in test [1] (setting [4]) and in test [2] (setting [5]) was less than 80% in each case.

For the compound `CC[C@H](NC(=O)c1nccc(OC)c1OCOC(C)=O)C(=O)O[C@@H](C)C(c1ccc(F)cc1)c1ccc(F)cc1` [Cmpd 184], the pest or weed control at 121.5 g/ha in test [1] (setting [3]), in test [1] (setting [4]), in test [2] (setting [5]) and in test [2] (setting [6]) was more than 80% in each case.

In the case of `COc1ccnc(C(=O)N[C@@H](C)C(=O)O[C@@H](C)C(c2cccc(F)c2)c2cccc(F)c2)c1O` [Cmpd 99], the pest or weed control at 100 ppm in test [1] (setting [3]) was more than 80%; in test [1] (setting [4]) it was more than 80%; in test [2] (setting [5]), more than 80%; in test [2] (setting [6]), less than 80%.

On to `COc1ccnc(C(=O)N[C@@H](C)C(=O)O[C@@H](C)C(c2ccc(F)cc2)c2ccc(F)cc2)c1OCOC(=O)C(C)C` [Cmpd 211], for which the pest or weed control at 121.5 g/ha in test [1] (setting [3]), in test [1] (setting [4]), in test [2] (setting [5]) and in test [2] (setting [6]) was more than 80% throughout.

On to `COc1ccnc(C(=O)N[C@@H](C)C(=O)O[C@@H](C)C(O)(c2ccc(Cl)c(Cl)c2)c2ccc(Cl)c(Cl)c2)c1OCOC(C)=O` [Cmpd 201], for which the pest or weed control at 121.5 g/ha in test [1] (setting [3]) is more than 80%; in test [1] (setting [4]) it was more than 80%; in test [2] (setting [5]), less than 80%.

For `CCc1ccc(C(c2ccc(CC)cc2)[C@H](C)OC(=O)[C@H](C)NC(=O)c2nccc(OC)c2OCOC(C)=O)cc1` [Cmpd 198], the pest or weed control at 121.5 g/ha in test [1] (setting [3]) is more than 80%; in test [1] (setting [4]), more than 80%; in test [2] (setting [5]), more than 80%; in test [2] (setting [6]) it was less than 80%.

For the compound `COc1ccnc(C(=O)NCC(=O)O[C@@H](C)C(c2ccc(F)cc2)c2ccc(F)cc2)c1O` [Cmpd 113], the pest or weed control at 100 ppm in test [1] (setting [3]) was more than 80%; in test [1] (setting [4]) it was less than 80%; in test [2] (setting [5]), more than 80%; in test [2] (setting [6]), less than 80%.

In the case of `COCCC(=O)Oc1c(OC)ccnc1C(=O)N[C@@H](C)C(=O)O[C@@H](C)C(c1ccc(F)cc1)c1ccc(F)cc1` [Cmpd 209], the pest or weed control at 121.5 g/ha in test [1] (setting [3]) was more than 80%; in test [1] (setting [4]), more than 80%; in test [2] (setting [5]) it was more than 80%; in test [2] (setting [6]), less than 80%.

For the compound `COc1ccnc(C(=O)N[C@@H](C)C(=O)O[C@@H](C)C(c2ccc(Cl)cc2)c2ccc(Cl)cc2)c1O` [Cmpd 107], the pest or weed control at 100 ppm in test [1] (setting [3]) is more than 80%; in test [1] (setting [4]), more than 80%; in test [2] (setting [5]), more than 80%; in test [2] (setting [6]), less than 80%.

`COc1ccnc(C(=O)N[C@@H](C)C(=O)O[C@@H](C)C(c2ccc(F)c(Cl)c2)c2ccc(F)c(Cl)c2)c1OCOC(C)=O` [Cmpd 219]: the pest or weed control at 121.5 g/ha in test [1] (setting [3]), in test [1] (setting [4]) and in test [2] (setting [5]) was more than 80% in each case.

Regarding `COc1ccnc(C(=O)N[C@@H](C)C(=O)O[C@@H](C)C(c2ccc(C)s2)c2ccc(C)s2)c1OCOC(C)=O` [Cmpd 170], the pest or weed control at 121.5 g/ha in test [1] (setting [3]), in test [1] (setting [4]), in test [2] (setting [5]) and in test [2] (setting [6]) was less than 80% in each case.

As to `COc1ccnc(C(=O)N[C@@H](C)C(=O)O[C@@H](C)C(c2ccc(F)cc2F)c2ccc(F)cc2F)c1O` [Cmpd 96], the pest or weed control at 100 ppm in test [1] (setting [3]), in test [1] (setting [4]), in test [2] (setting [5]) and in test [2] (setting [6]) was more than 80% each time.

As to `COc1ccnc(C(=O)N[C@@H](C)C(=O)O[C@@H](C)C(OC)(c2ccccc2)c2ccccc2)c1OCOC(C)=O` [Cmpd 149], the pest or weed control at 121.5 g/ha was more than 80% in test [1] (setting [3]), more than 80% in test [1] (setting [4]), less than 80% in test [2] (setting [5]) and less than 80% in test [2] (setting [6]).

For `COc1ccnc(C(=O)N[C@@H](C)C(=O)OC(C)C2c3ccccc3-c3ccccc32)c1OCOC(C)=O` (stereo partly shown) [Cmpd 163], the figures for the pest or weed control at 121.5 g/ha in test [1] (setting [3]), in test [1] (setting [4]) and in test [2] (setting [5]) were less than 80%, more than 80% and less than 80%, respectively.

Regarding `COc1ccnc(C(=O)N[C@H](C(=O)O[C@@H](C)C(c2ccc(F)cc2)c2ccc(F)cc2)C(C)C)c1O` [Cmpd 115], the results for the pest or weed control at 100 ppm in test [1] (setting [3]), in test [1] (setting [4]) and in test [2] (setting [5]) were more than 80%, more than 80% and less than 80%, respectively.

For `COc1ccc(C(c2ccc(OC)cc2)[C@H](C)OC(=O)[C@H](C)NC(=O)c2nccc(OC)c2OC(C)=O)cc1` [Cmpd 155], the pest or weed control at 121.5 g/ha in test [1] (setting [3]), in test [1] (setting [4]), in test [2] (setting [5]) and in test [2] (setting [6]) was more than 80% each time.

As for `COc1ccnc(C(=O)N[C@@H](C)C(=O)O[C@@H](C)[C@@H](c2ccccc2)c2ccc(F)cc2)c1OC(C)=O` [Cmpd 204], the pest or weed control at 121.5 g/ha in test [1] (setting [3]), in test [1] (setting [4]), in test [2] (setting [5]) and in test [2] (setting [6]) was more than 80% in each case.

In the case of `COc1ccnc(C(=O)N[C@@H](C)C(=O)O[C@@H](C)[C@@H](c2ccccc2)c2ccc(C(F)(F)F)cc2)c1O` [Cmpd 106], the pest or weed control at 100 ppm in test [1] (setting [3]), in test [1] (setting [4]) and in test [2] (setting [5]) was more than 80% in each case.

`COc1ccnc(C(=O)N[C@@H](C)C(=O)O[C@@H](C)C(c2cccc(Cl)c2)c2cccc(Cl)c2)c1OC(C)=O` [Cmpd 157]: the pest or weed control at 121.5 g/ha in test [1] (setting [3]), in test [1] (setting [4]), in test [2] (setting [5]) and in test [2] (setting [6]) was more than 80% each time.

As for `COc1ccnc(C(=O)N[C@@H](C)C(=O)O[C@@H](C)C(c2ccc(F)cc2)c2ccc(F)cc2)c1OC(=O)C(C)C` [Cmpd 208], the pest or weed control at 121.5 g/ha in test [1] (setting [3]) is more than 80%; in test [1] (setting [4]), more than 80%; in test [2] (setting [5]), more than 80%; in test [2] (setting [6]), less than 80%.

Regarding `COc1ccnc(C(=O)N[C@@H](C)C(=O)O[C@@H](C)C(c2ccc(F)c(F)c2)c2ccc(F)c(F)c2)c1OCOC(C)=O` [Cmpd 218], the pest or weed control at 121.5 g/ha in test [1] (setting [3]) is more than 80%; in test [1] (setting [4]), more than 80%; in test [2] (setting [5]) it was more than 80%; in test [2] (setting [6]), less than 80%.

For `COc1ccnc(C(=O)N[C@@H](C)C(=O)O[C@@H](C)C(c2ccc(F)c(C)c2)c2ccc(F)c(C)c2)c1OCOC(C)=O` [Cmpd 220], the pest or weed control at 121.5 g/ha in test [1] (setting [3]) was more than 80%; in test [1] (setting [4]) it was more than 80%; in test [2] (setting [5]), more than 80%; in test [2] (setting [6]) it was less than 80%.

In the case of `CCOC(c1ccccc1)(c1ccccc1)[C@H](C)OC(=O)[C@H](C)NC(=O)c1nccc(OC)c1OCOC(C)=O` [Cmpd 147], the pest or weed control at 121.5 g/ha in test [1] (setting [3]) was less than 80%; in test [1] (setting [4]), more than 80%; in test [2] (setting [5]), less than 80%; in test [2] (setting [6]) it was less than 80%.

Regarding `COc1ccnc(C(=O)N[C@@H](C)C(=O)O[C@@H](C)C(O)(c2ccc(Cl)c(Cl)c2)c2ccc(Cl)c(Cl)c2)c1O` [Cmpd 127], the pest or weed control at 100 ppm in test [1] (setting [3]) and in test [2] (setting [5]) was less than 80% throughout.
